Among the data in PubChem BioAssay AID179 (DTP/NCI, 2004) are EC50, IC50 and outcome values, retold here.

The structures appear in SMILES notation. Activity calls are given as the source filed them.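 How the source made its calls: active means compounds giving half or more protection of infected cells from virus-caused growth loss, again on retest; inactive means the rest.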

The subject of this experiment is CEM cells HIV-1 protection, formazan growth assay. In words: NCI AIDS Antiviral Assay. The note with it: for IC50: measured here: growth of uninfected CEM cells. An outline of the steps: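 Screen of anti-HIV-1 activity in human CEM cells using a formazan-based growth measurement at five drug concentrations. Hits with 50% or greater protection were repeated, and confirmation required reproducible complete protection.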

In general, EC50 refers to the concentration that produces a half-maximal response. The IC50 is the concentration at which inhibition is half-maximal. Low values mean higher potency, high ones lower potency. In the case of `Nn1c(SCC(=O)NCc2ccccc2)nc2ccccc2c1=O`, the EC50 is 12.6 µM and the IC50 is 95.5 µM.

`CC(=S)NC1C(Oc2ccc3c(C)cc(=O)oc3c2)OC(CO)C(O)C1O` (stereo not given): the EC50 was over 200 µM and the IC50 was over 200 µM.

For the compound `CN1C(=O)CCC2[C@@H]3CC=C4C[C@@H](O)CC[C@]4(C)C3CC[C@@]21C` (stereo not given in full), the result was inactive.

Take `COc1ccc(/C(Nc2ccccc2)=C(\CCl)c2ccccc2)cc1OC`: the EC50 is over 200 µM and the IC50 turned out to be 31.6 µM.

Consider `CC(C)(C)c1n[nH]c(C(C)(C)C)c1N=O`, for which the EC50 was over 200 µM and the IC50 came out at 97.7 µM.

On to `Cc1cc(C)c(S(=O)(=O)ONC(=O)OC(C)(C)C)c(C)c1`, for which the outcome was inactive.

Turning to `CCCCCCCCCCCC(=O)C1=C(O)C(O)CCC1=O` (stereo not given), the outcome was inactive.

On to `Nc1ncnc2c1ncn2C1CC(CO)C(CO)O1` (stereo not given), for which the result was inactive.

With `Nc1cn(Cc2ccccc2)c2nc(/C=C3/C=CC=CC3=O)c(O)n12`, the EC50 was over 200 µM and the IC50 is over 200 µM.

`CCc1cccc(C)c1NC(=O)CC1Sc2ccccc2NC1=O` (stereo not given): the EC50 is over 28.8 µM and the IC50 turned out to be 17.8 µM.

Take `O=C1c2c(O)cc(O)cc2OC(c2ccc(O)cc2)C1C1C(=O)c2c(O)cc(O)cc2OC1c1ccc(O)cc1` (stereo not given): the EC50 was over 200 µM and the IC50 came out at 46.8 µM.

Take `O=C1C2=Cc3ccccc3OC2(O)Oc2cc3ccccc3cc21` (stereo not given): the EC50 was over 200 µM and the IC50 stood at 69.2 µM.

As for `O=C1NC2=NN=C(c3ccc(Br)cc3)CN2NC12c1ccccc1-c1ccccc12`, the EC50 was over 100 µM and the IC50 was over 100 µM.

`O=C1C(c2ccccc2)=[N+]([O-])c2cc([N+](=O)[O-])ccc21`: the outcome was inactive.

As for `Cc1cccc(C(O)c2ccncc2)c1O` (stereo not given), the EC50 was over 200 µM and the IC50 turned out to be 191 µM.

Take `NC(N)=NCCC(O)(P(=O)(O)O)P(=O)(O)O`: the EC50 is over 200 µM and the IC50 is over 200 µM.

As for `CC(=O)C1=CCC2c3[nH]c4ccccc4c3CCN2C1` (stereo not given), the EC50 was over 70.8 µM and the IC50 is over 70.8 µM.

Take `CN(C)CCC(=O)CCN(C)C`: the EC50 was over 1020 µM and the IC50 was 186 µM.

On to `COC(=O)NCC(OC(=O)c1cc2c(cc1I)OCO2)C1=CCCCC1` (stereo not given), for which the EC50 was over 28.8 µM and the concentration for half-maximal inhibition (IC50) is over 28.8 µM.

On to `COc1cc2c(c(OC)c1OC)-c1ccc(=O)c(OC)cc1C(NC(C)=O)CC2` (stereo not given), for which the result was inactive.

Take `CCOC(=O)/C(=N/Nc1ccccc1)N1C(=S)C=C(C)NN(C)C1=S`: the EC50 is over 200 µM and the IC50 was over 200 µM.

For `Nc1nc2c(ncn2C2OC(CO)(C(F)(F)F)C(O)C2O)c(=O)[nH]1` (stereo not given), the EC50 is over 200 µM and the IC50 was over 200 µM.

In the case of `CC(=O)OCC1OC(Nc2cc(=O)[nH]c(=O)[nH]2)C(OC(C)=O)C(OC(C)=O)C1OC(C)=O` (stereo not given), the result was inactive.

Take `COCOc1c(OC)c(C2(O)C(=O)N(C)c3ccccc32)c(OCOC)c(OC)c1C1(O)C(=O)N(C)c2ccccc21` (stereo not given): the EC50 is over 200 µM and the IC50 came to 42.7 µM.

As to `CC1CN(C(=O)CN2CCC(CCCCN(C)C)CC2)c2ccccc2NC1=O` (stereo not given), the EC50 was over 251 µM and the IC50 is over 251 µM.

Take `CN(C)c1ccc(C=C2C(=O)OC(C)(C)OC2=O)cc1Br`: the EC50 is over 28.2 µM and the IC50 is over 28.2 µM.

Take `O=C(/C=C/c1ccccc1Cl)c1ccc(Cl)cc1Cl`: the EC50 was over 3.31 µM and the IC50 was over 3.31 µM.

In the case of `NC1=NCC(CN2CCOCC2)O1` (stereo not given), the EC50 was over 200 µM and the IC50 was over 200 µM.

With `CN1C(=O)C(c2c[nH]c3ccccc23)N(C)C(=O)C1c1c[nH]c2ccccc12` (stereo not given), the EC50 was over 200 µM and the IC50 is over 200 µM.

With `Cc1ccc(S(=O)(=O)N/N=C2/CCC3(O)CC2(C)CCC2[C@H]3CC2(C)C)cc1` (stereo not given in full), the EC50 was over 200 µM and the IC50 worked out at 33.9 µM.

Consider `COC(=O)C1C(C(=O)OC)C1(Br)CBr` (stereo not given), for which the EC50 was over 200 µM and the IC50 worked out at 5.89 µM.

Consider `COC(=O)C(C(=O)C(=O)Nc1cccc([N+](=O)[O-])c1)c1nc2ccc([N+](=O)[O-])cc2[nH]c1=O` (stereo not given), for which the EC50 was over 550 µM and the IC50 was 309 µM.

On to `CCOC(=O)NC(NC(C)CC)(C(F)(F)F)C(F)(F)F` (stereo not given), for which the EC50 was over 200 µM and the IC50 is over 200 µM.

As for `CCOC(=O)C(=O)CC1=CC=CC2=NC(=O)CCN12`, the EC50 was over 200 µM and the IC50 was over 200 µM.

`O=c1[nH]c(=O)n(COCc2ccccc2)cc1Nc1ccc(Br)cc1`: the EC50 is over 200 µM and the IC50 was over 200 µM.

On to `O=c1[nH]c2c(c(=O)[nH]1)SC(c1ccccc1)C2` (stereo not given), for which the EC50 is over 200 µM and the IC50 was over 200 µM.

For `CCOP(=O)(C=C=C1CCC2[C@@H]3CCc4cc(OC)ccc4C3CC[C@]12C)OCC` (stereo not given in full), the EC50 was over 200 µM and the IC50 was 2.09 µM.

In the case of `CC1(C)CC(N(C(=O)/C=C/c2ccc([N+](=O)[O-])o2)C2CCCCC2)CC(C)(C)N1`, the EC50 was over 32.4 µM and the IC50 was 17.4 µM.

As for `Cc1cc(C)c(S(=O)(=O)N(CCCCN)OCCCN)c(C)c1`, the EC50 is over 200 µM and the IC50 is 28.2 µM.

Regarding `CC(C)(C)OC(=O)NC(Cc1ccccc1)C(=O)OCN1C(=O)C2C3C=CC(C2C1=O)C1C2C(=O)N(COC(=O)C(Cc4ccccc4)NC(=O)OC(C)(C)C)C(=O)C2C31` (stereo not given), the EC50 was over 100 µM and the IC50 was 15.5 µM.

Take `O=c1c2ccccc2oc2cc(C(O)c3ccccc3)ccc12` (stereo not given): the EC50 was over 200 µM and the IC50 was 97.7 µM.

`Cn1c(=O)c2[nH]c(/N=N\n3ccc4ccccc43)nc2n(C)c1=O`: the EC50 was over 200 µM and the IC50 turned out to be 191 µM.

For `O=C(CN1CCC(O)(c2ccccc2)CC1)N1CCN(/C=C/c2ccccc2)CC1`, the EC50 was over 200 µM and the IC50 amounted to 58.9 µM.

Regarding `c1ccc2c(c1)-c1ccccc1C2NC1=NCCO1`, the EC50 is over 200 µM and the IC50 came out at 26.3 µM.

For the compound `COc1cc(Nc2cnc3ccc(N)cc3n2)cc(OC)c1OC`, the EC50 is over 550 µM.

`O=C1CCC2(c3ccccc3)Nc3cc([N+](=O)[O-])ccc3N12` (stereo not given): the EC50 was over 24.5 µM and the IC50 is over 24.5 µM.

For `N=C(OC1CCCCC1)N1CCCC1`, the EC50 is over 200 µM and the IC50 is over 200 µM.

Take `CN(C)CCONC(=O)C12CC3CC(CC(C3)C1)C2`: the outcome was inactive.

For `CCCCNC(=S)Nc1nc(C(=O)NNC(=S)NC2CCCCC2)cs1`, the EC50 was over 200 µM and the IC50 was 170 µM.

Take `CCCC(CC)c1c(O)c(O)c(C(CC)CCC)c(C(CC)CCC)c1C(CC)CCC` (stereo not given): the EC50 is over 100 µM and the IC50 was determined as 15.5 µM.

As for `CC(=O)OC(C(=O)[O][Sn]([CH3])([CH3])[CH3])c1ccccc1` (stereo not given), the result was inactive.

Take `CC(=O)NC(CCCCNC(=O)NCCCl)C(=O)NCc1ccccc1` (stereo not given): the EC50 was over 646 µM and the IC50 is over 646 µM.

Take `C=C(c1ccccc1)[C@@]1(O)CC[C@@H]1N(CC#N)Cc1ccccc1`: the result was inactive.

Consider `COc1ccc(NS(=O)C2CCCCC2)cc1` (stereo not given), for which the EC50 is over 200 µM and the IC50 was over 200 µM.

For the compound `CC#CCCCC1(C)CCNC1=S` (stereo not given), the EC50 is over 200 µM and the IC50 is over 200 µM.

`CNC(=S)N/N=C1\CC(c2ccccc2)Oc2ccccc21` (stereo not given): the outcome was inactive.

As to `CCOC(=N)COC(=O)c1ccccc1`, the EC50 is over 200 µM and the IC50 is over 200 µM.

As to `CC1OC(OC2C(Oc3c(-c4ccc(O)c(O)c4O)oc4cc(O)ccc4c3=O)OC(CO)C(O)C2O)C(O)C(O)C1O` (stereo not given), the EC50 was over 200 µM and the IC50 came to 21.9 µM.

Turning to `Cc1ccc2c(c1)S(=O)(=O)N(C)C(c1ccccc1)=C2`, the EC50 is over 18.2 µM and the IC50 was over 18.2 µM.

With `O=C1/C(=C/c2ccc(O)c(O)c2)CC/C1=C\c1ccc(O)c(O)c1`, the EC50 was over 200 µM and the IC50 was found to be 10.7 µM.

As to `FC(F)(Sc1ncccn1)c1nc(-c2ccccc2)no1`, the EC50 is over 200 µM and the IC50 was found to be 53.7 µM.

For the compound `CN(C(=O)C12C3(C(=O)O)C4C5(C(=O)O)C3C1(C(=O)O)C5C42C(=O)O)C(C)(C)C` (stereo not given), the EC50 is over 200 µM and the IC50 is over 200 µM.

Regarding `O=C(CC/C(CC(=O)c1ccc(Cl)cc1)=N\O)Nc1cccc(Cl)c1`, the EC50 is over 347 µM and the IC50 was 257 µM.

For the compound `Cc1noc(NC2=CC(=O)C(=O)c3ccccc32)c1C`, the EC50 is over 200 µM and the IC50 amounted to 3.98 µM.

For `CCN(CC)CC(C)(C)C(=O)/C=C/c1ccc(/C=C/C(=O)C(C)(C)CN(CC)CC)cc1`, the result was inactive.

Regarding `CC(SC(=S)Nc1cccc(F)c1)C(=O)O` (stereo not given), the outcome was inactive.

Take `Cc1c(O)c(O)c(C)c(CCN)c1O`: the EC50 was over 200 µM and the IC50 is 11 µM.

Regarding `CCSc1n/c(=C\c2ccco2)c2nncn12`, the EC50 was over 100 µM and the IC50 is over 100 µM.

In the case of `c1ccc2c(c1)Sc1ccccc1N2CCCN1c2ccccc2Sc2ccccc21`, the EC50 was over 50.1 µM and the IC50 is over 50.1 µM.

Consider `O=C(Nc1ccc(/C=C/c2ccc(NC(=O)c3cc(S(=O)(=O)O)ccc3O)cc2S(=O)(=O)O)c(S(=O)(=O)O)c1)c1cc(S(=O)(=O)O)ccc1O`, for which the EC50 was 93.3 µM and the IC50 was over 200 µM.

For the compound `O=C1Nc2cc(Cl)ccc2C(=O)N2CCC[C@@H]12`, the EC50 was over 200 µM and the IC50 was over 200 µM.

With `O=C1c2nn(-c3ccccc3)nc2C(c2ccccc2)N1c1ccccc1` (stereo not given), the EC50 was over 14.8 µM and the IC50 was over 14.8 µM.

Regarding `C=C(CC1CCCS(=O)(=O)C1)S(=O)(=O)c1ccc(C)cc1` (stereo not given), the EC50 is over 200 µM and the IC50 was over 200 µM.

Regarding `COC(=O)[C@@H]1[C@H]2C[C@@H]3c4[nH]c5ccccc5c4CCN3C[C@@H]2CC[C@@H]1O`, the outcome was inactive.

`COc1cc(C(SCc2ccccc2)SCc2ccccc2)ccc1O`: the EC50 is over 200 µM and the IC50 is 34.7 µM.
